Experiments:
Format in all cases: functional, cell-based
Conditions in all cases: oocyte
[1] = molecular target: T1, Hepatic sodium/bile acid cotransporter (Rattus norvegicus, UniProt P26435); experiment: TP_TRANSPORTER: inhibition of Taurocholate uptake (Taurochorate: 17 uM, Bumetanide: 500 uM) in Xenopus laevis oocytes
T1 sequence (P26435 whole entry): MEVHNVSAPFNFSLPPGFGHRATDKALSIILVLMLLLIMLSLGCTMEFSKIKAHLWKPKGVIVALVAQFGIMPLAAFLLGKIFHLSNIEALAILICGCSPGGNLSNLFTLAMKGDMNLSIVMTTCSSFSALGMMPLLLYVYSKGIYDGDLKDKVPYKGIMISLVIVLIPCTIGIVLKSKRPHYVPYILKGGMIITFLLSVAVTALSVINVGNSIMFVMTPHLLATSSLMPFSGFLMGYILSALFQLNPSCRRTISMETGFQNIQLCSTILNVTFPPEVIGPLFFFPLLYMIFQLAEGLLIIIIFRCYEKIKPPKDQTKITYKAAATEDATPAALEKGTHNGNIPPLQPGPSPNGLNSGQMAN

[2] = molecular target: T1, Hepatic sodium/bile acid cotransporter; experiment: TP_TRANSPORTER: inhibition of Taurocholate uptake (Taurochorate: 17 uM, Probenecid: 1000 uM) in Xenopus laevis oocytes
[3] = molecular target: T1, Hepatic sodium/bile acid cotransporter; experiment: TP_TRANSPORTER: inhibition of Taurocholate uptake (Taurochorate: 17 uM, BSP: 100 uM) in Xenopus laevis oocytes
[4] = molecular target: T1, Hepatic sodium/bile acid cotransporter; experiment: TP_TRANSPORTER: inhibition of Taurocholate uptake (Taurochorate: 17 uM, TCDC: 100 uM) in Xenopus laevis oocytes

CCCCNc1cc(C(=O)O)cc(S(N)(=O)=O)c1Oc1ccccc1 [BUMETANIDE]
Activity [1]: inhibitor [(at a rough estimate) 50 % of control]

CCCN(CCC)S(=O)(=O)c1ccc(C(=O)O)cc1 [PROBENECID]
Activity [2]: inhibitor [(at a rough estimate) 70 % of control]

O=C1OC(c2ccc(O)c(S(=O)(=O)[O-])c2)(c2ccc(O)c(S(=O)(=O)[O-])c2)c2c(Br)c(Br)c(Br)c(Br)c21.[Na+].[Na+] [SULFOBROMOPHTHALEIN SODIUM]
Activity [3]: inhibitor [(at a rough estimate) 25 % of control]

C[C@H](CCC(=O)NCCS(=O)(=O)O)[C@H]1CC[C@H]2[C@@H]3[C@H](O)C[C@@H]4C[C@H](O)CC[C@]4(C)[C@H]3CC[C@]12C [TAUROCHENODEOXYCHOLATE]
Activity [4]: inhibitor [(at a rough estimate) 15 % of control]

Reference: ChEMBL document CHEMBL2074189, “Functional expression cloning and characterization of the hepatocyte Na+/bile acid cotransport system” (Proc Natl Acad Sci U S A, 1991)
